Measurements taken from US7553860B2, “Substituted gamma lactams as therapeutic agents” (Allergan, Inc., priority 2006, dated 2009).

What was measured:
[1] = molecular target: T1, EP2 (Homo sapiens, UniProt P43116); test: EP2 cAMP; assay type: cell-based
[2] = molecular target: T1, EP2; test: EP2 competition binding ([3H]PGE2), Ki; set-up: expressed in transfected cells; host or cells: HEK 293; settings: HEK 293 cells stably expressing human EP2, [3H]PGE2
Method: Competition binding experiments are performed in a medium containing Hank's balanced salt solution, Hepes 20 mM, pH 7.3, membranes (˜60 μg protein) or 2×10^5 cells from HEK 293 cells stably expressing human EP2 receptors, [^3H]PGE2 (10 nM) and various concentrations of test compounds in a total volume of 300 μl. Reaction mixtures are incubated at 23° C. for 60 min, and are filtered over Whatman GF/B filters under vacuum. Filters are washed three times with 5 ml ice-cold buffer containing 50 mM Tris/HCl (pH 7.3). Non-specific binding is estimated in the presence of excess unlabeled PGE2 (10 μM). Binding data fitted to the binding model for a single class of binding sites, using nonlinear regression analysis. IC50 values thus obtained are converted to Ki using the equation of Ki=(IC50/(1+[L]/KD) where [L] represents PGE2 concentration (10 nM) and KD the dissociation constant for [^3H]PGE2 at human EP2 receptors (40 nM). […]
The cell homogenate is centrifuged at 19000 r.p.m. for 20 min at 4° C. using a Beckman Ti-60 rotor. The resultant pellet is resuspended in TME buffer to give a final 1 mg/ml protein concentration, as determined by Biorad assay. […]
[^3H-] […] 17-phenyl PGF2[…] and non-specific binding determined with 10^−5M of unlabeled PGE2, or 17-phenyl PGF2α, according to receptor subtype studied.

[3] = molecular target: T2, hEP2/Gqs5 (Homo sapiens, UniProt P43116); test: EP2 FLIPR calcium signal; assay type: cell-based; settings: HEK-293(EBNA) cells
T2 construct: expressed in transfected cells; host or cells: HEK-293(EBNA)
T2 sequence (P43116 whole entry): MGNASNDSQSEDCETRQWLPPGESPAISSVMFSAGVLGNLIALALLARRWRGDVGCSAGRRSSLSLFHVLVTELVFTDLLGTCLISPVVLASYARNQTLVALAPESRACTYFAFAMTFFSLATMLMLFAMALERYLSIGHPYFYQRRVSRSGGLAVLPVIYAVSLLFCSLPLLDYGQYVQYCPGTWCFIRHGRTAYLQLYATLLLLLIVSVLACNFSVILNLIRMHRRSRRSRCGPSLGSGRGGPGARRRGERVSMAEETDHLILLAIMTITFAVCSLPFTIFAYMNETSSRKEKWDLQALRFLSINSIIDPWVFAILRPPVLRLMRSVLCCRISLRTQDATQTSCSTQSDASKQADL
Method: (§1) HEK-293(EBNA) cells, stably expressing one type or subtype of recombinant human prostaglandin receptors (prostaglandin receptors expressed: hDP/Gqs5; hEP1; hEP2/Gqs5; hEP3A/Gqi5; hEP4/Gqs5; hFP; hIP; hTP), are cultured in 100 mm culture dishes in high-glucose DMEM medium containing 10% fetal bovine serum, 2 mM I-glutamine, 250 μg/ml geneticin (G418) and 200 μg/ml hygromycin B as selection markers, and 100 units/ml penicillin G, 100 μg/ml streptomycin and 0.25 μg/ml amphotericin B.
(§2) Cells are seeded at a density of 5×10^4 cells per well in Biocoat® Poly-D-lysine-coated black-wall, clear-bottom 96-well plates (Becton-Dickinson) and allowed to attach overnight in an incubator at 37° C. Cells are then washed two times with HBSS-HEPES buffer (Hanks Balanced Salt Solution without bicarbonate and phenol red, 20 mM HEPES, pH 7.4) using a Denley Cellwash plate washer (Labsystems). […]
(§3) Cells are excited with an Argon laser at 488 nm, and emission is measured through a 510-570 nm bandwidth emission filter (FLIPR™, Molecular Devices, Sunnyvale, Calif.). […] The peak increase in fluorescence intensity is recorded for each well. […] The peak fluorescence change in each drug-containing well is then expressed relative to the controls. […]

[4] = molecular target: T3, hEP3A/Gqi5 (Homo sapiens, UniProt P43115); test: FLIPR calcium signal, hEP3A; assay type: cell-based; settings: HEK-293(EBNA) cells; read-out: Other Receptors (EC50 in nM) hEP3A
T3 construct: expressed in transfected cells; host or cells: HEK-293(EBNA)
T3 sequence (P43115 1-390): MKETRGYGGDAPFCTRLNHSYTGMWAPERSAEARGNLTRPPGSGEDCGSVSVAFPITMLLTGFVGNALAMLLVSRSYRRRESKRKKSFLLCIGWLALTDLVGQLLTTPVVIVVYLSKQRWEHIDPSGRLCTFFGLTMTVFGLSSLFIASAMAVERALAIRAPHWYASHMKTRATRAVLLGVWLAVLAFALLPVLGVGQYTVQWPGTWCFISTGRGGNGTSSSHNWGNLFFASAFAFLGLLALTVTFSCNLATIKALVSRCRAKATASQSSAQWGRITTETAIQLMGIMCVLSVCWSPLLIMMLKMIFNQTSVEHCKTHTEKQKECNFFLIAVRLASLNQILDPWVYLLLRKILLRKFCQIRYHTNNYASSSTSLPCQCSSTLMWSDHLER
Method: as §1, §2, §3

[5] = molecular target: T4, hDP/Gqs5 (Homo sapiens, UniProt Q13258); test: FLIPR calcium signal, hDP; assay type: cell-based; settings: HEK-293(EBNA) cells; read-out: Other Receptors (EC50 in nM) hDP
T4 construct: expressed in transfected cells; host or cells: HEK-293(EBNA)
T4 sequence (Q13258 1-359): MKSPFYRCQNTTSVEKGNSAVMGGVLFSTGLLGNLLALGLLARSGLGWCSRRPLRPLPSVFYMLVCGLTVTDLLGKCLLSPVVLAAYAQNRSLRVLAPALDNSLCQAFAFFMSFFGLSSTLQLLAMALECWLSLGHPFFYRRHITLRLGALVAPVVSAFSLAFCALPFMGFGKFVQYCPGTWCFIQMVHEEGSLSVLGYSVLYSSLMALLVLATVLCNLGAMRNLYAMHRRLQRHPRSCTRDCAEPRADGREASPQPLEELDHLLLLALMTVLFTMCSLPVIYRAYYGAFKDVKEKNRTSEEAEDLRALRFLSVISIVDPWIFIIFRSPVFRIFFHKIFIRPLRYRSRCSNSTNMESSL
Method: as §1, §2, §3

T1 sequence (P43116 whole entry): as the sequence (P43116 whole entry) above

Compound | EC50 [1] [nM] | Ki [2] [nM] | EC50 [3] [nM] | EC50 [4] [nM] | EC50 [5] [nM]
CCCCCC(F)c1ccc(N2C(=O)OC[C@@H]2COCc2ccc(C(=O)O)s2)cc1 (stereo partly drawn) [5-{(S)-3-[4-(1-Fluoro-hexyl)-phenyl]-2-oxo-oxazolidin-4-ylmethoxymethyl}-thiophene-2-carboxylic acid] | 13 | 1040 | – | – | –
CCCCCC(O)c1ccc(N2C(=O)OC[C@@H]2COCc2ccc(C(=O)O)s2)cc1 (stereo partly drawn) [5-{(S)-3-[4-(1-Hydroxy-hexyl)-phenyl]-2-oxo-oxazolidin-4-ylmethoxymethyl}-thiophene-2-carboxylic acid] | 14 | 2710 | 817 | 995 | > 10000
